Assay results reported in ChEMBL document CHEMBL1137905, “Synthesis of anilino-monoindolylmaleimides as potent and selective PKCbeta inhibitors” (Bioorg Med Chem Lett, 2004).

Legend:
[1] = target: T1, Protein kinase C epsilon type (Homo sapiens, UniProt Q02156); experiment: Inhibitory concentration against recombinant human Protein kinase C epsilon
T1 sequence (Q02156 whole entry): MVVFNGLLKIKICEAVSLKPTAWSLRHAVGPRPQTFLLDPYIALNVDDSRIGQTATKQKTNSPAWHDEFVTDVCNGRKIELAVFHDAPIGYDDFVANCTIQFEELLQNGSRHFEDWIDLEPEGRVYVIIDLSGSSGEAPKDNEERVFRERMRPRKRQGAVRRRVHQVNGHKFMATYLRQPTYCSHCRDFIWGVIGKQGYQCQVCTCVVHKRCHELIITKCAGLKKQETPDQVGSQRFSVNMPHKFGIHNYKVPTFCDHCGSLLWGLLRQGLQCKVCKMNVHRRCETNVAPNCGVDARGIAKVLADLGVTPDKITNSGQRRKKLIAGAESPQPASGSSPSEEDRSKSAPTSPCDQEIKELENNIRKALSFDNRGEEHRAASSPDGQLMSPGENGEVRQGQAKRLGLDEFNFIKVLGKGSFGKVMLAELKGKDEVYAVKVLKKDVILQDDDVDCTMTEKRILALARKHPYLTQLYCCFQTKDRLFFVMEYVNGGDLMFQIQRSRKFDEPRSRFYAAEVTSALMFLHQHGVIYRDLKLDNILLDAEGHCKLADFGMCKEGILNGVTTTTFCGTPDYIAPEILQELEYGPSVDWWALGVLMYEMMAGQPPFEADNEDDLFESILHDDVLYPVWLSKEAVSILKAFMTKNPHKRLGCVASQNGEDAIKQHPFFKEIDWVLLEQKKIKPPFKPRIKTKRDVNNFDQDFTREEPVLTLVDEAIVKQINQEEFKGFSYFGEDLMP

[2] = target: T2, Protein kinase C beta type (Homo sapiens, UniProt P05771); experiment: Inhibitory concentration against recombinant human Protein kinase C beta 1
[3] = target: T2, Protein kinase C beta type; experiment: Inhibitory concentration against recombinant human Protein kinase C beta 2
[4] = target: Protein kinase C alpha type (Homo sapiens, UniProt P17252); experiment: Inhibitory concentration against recombinant human Protein kinase C alpha

T2 sequence (P05771 whole entry): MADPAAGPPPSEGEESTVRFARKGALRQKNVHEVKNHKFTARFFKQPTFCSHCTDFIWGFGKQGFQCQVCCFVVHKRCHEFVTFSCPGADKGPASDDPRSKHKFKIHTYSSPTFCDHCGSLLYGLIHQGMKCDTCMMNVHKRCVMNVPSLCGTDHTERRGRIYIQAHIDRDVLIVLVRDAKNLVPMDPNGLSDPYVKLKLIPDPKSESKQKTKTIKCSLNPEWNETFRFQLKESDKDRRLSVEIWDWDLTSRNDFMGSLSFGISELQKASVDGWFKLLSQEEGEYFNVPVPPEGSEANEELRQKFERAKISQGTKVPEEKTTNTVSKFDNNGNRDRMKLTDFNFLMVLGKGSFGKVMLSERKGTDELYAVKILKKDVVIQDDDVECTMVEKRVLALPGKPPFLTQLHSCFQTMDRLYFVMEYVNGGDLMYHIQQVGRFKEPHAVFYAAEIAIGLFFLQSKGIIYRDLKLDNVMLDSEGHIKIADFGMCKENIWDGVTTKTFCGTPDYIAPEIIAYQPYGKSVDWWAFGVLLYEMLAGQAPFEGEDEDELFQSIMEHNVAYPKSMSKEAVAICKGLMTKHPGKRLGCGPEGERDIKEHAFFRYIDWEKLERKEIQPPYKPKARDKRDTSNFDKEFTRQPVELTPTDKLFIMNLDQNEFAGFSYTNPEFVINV

Structure (SMILES) | IC50 [1] | IC50 [3] | further results
O=C1NC(=O)C(c2c[nH]c3ccccc23)=C1Nc1ccccc1 | > 10000 nM |  | IC50 [2]: 395 nM
O=C1NC(=O)C(c2cn(CCCN3CCCC3)c3ccccc23)=C1Nc1ccccc1 | > 10000 nM |  | 
CN1CCN(CCCn2cc(C3=C(Nc4ccccc4)C(=O)NC3=O)c3ccccc32)CC1 | > 10000 nM |  | 
CC(C)c1cccc(NC2=C(c3c[nH]c4ccccc34)C(=O)NC2=O)c1 |  | 2860 nM | 
CN(C)CCCCn1cc(C2=C(Nc3ccccc3)C(=O)NC2=O)c2ccccc21 | 5870 nM |  | 
CN(C)CCCCCn1cc(C2=C(Nc3ccccc3)C(=O)NC2=O)c2ccccc21 | 3900 nM | 41 nM | IC50 [4]: 2230 nM
CN(C)CCn1cc(C2=C(Nc3ccccc3)C(=O)NC2=O)c2ccccc21 | > 10000 nM |  | 
O=C1NC(=O)C(c2c[nH]c3ccccc23)=C1NC1CCCCC1 |  | 2450 nM | 
O=C1NC(=O)C(c2cn(CCCO)c3ccccc23)=C1Nc1ccccc1 | 6320 nM |  | 
COc1cccc(NC2=C(c3c[nH]c4ccccc34)C(=O)NC2=O)c1 |  | 747 nM | 
Cc1ccc(NC2=C(c3c[nH]c4ccccc34)C(=O)NC2=O)cc1 |  | 480 nM | 
CN(C1=C(c2c[nH]c3ccccc23)C(=O)NC1=O)c1ccccc1 |  | 939 nM | 
O=C1NC(=O)C(c2cn(CCCN3CCCCC3)c3ccccc23)=C1Nc1ccccc1 | 3420 nM |  | 
CN(C)CCCn1cc(C2=C(Nc3cccc(Cl)c3)C(=O)NC2=O)c2ccccc21 | 2610 nM |  | 
O=C1NC(=O)C(c2c[nH]c3ccccc23)=C1NCc1ccccc1 |  | > 10000 nM | 
CN(C)CCCn1cc(C2=C(Nc3ccccc3)C(=O)NC2=O)c2ccccc21 | 3460 nM |  | 
O=C1NC(=O)C(c2cn(CCCn3ccnc3)c3ccccc23)=C1Nc1ccccc1 | 2810 nM |  | IC50 [2]: 21 nM
Cc1cccc(NC2=C(c3cn(CCCN(C)C)c4ccccc34)C(=O)NC2=O)c1 | 3460 nM |  | 
O=C1NC(=O)C(c2c[nH]c3ccccc23)=C1Nc1cccc(C(F)(F)F)c1 |  | 1450 nM | 
Cc1ccccc1NC1=C(c2c[nH]c3ccccc23)C(=O)NC1=O |  | 2150 nM | 
N=C(N)SCCCn1cc(C2=C(Nc3ccccc3)C(=O)NC2=O)c2ccccc21 | 58 nM |  | 
O=C1NC(=O)C(c2c[nH]c3ccccc23)=C1c1c[nH]c2ccccc12 [RO-316233] | 7520 nM | 212 nM | IC50 [2]: 304 nM; IC50 [4]: 1600 nM
